A short description of data set [1]: in vitro. Particulars: dog, MDCK cells.
Description: Selectivity index, ratio of CTD50 for MDCK cells to ED50 for Influenza A virus (A/California/07/09(H1N1)) pdm09
Data set [2] is described as follows: Cytotoxicity against MDCK cells assessed as cell viability after 48 hrs by MTT assay. Type of data set: cell-based, Canis lupus familiaris. The following applies: dog, read-out: CTD50.

Where a name gives a salt, the structure may show the parent alone.

Take `CC1(C)[C@@H]2CC[C@@]1(C)/C(=N/CCC/N=C1\C[C@H]3CC[C@]1(C)C3(C)C)C2`: the selectivity ratio in data set [1] is 30. The CC50 at 48 h in data set [2] came to 284 µM.

Turning to `CC1(C)[C@@H]2CC[C@@]1(C)/C(=N/CCCCCC/N=C1\C[C@H]3CC[C@]1(C)C3(C)C)C2`, the selectivity ratio in data set [1] was 89. Also, the CC50 at 48 h in data set [2] came to 1350 µM. For `CC1(C)[C@@H]2CC[C@@]1(C)/C(=N/CCCCCCC/N=C1\C[C@H]3CC[C@]1(C)C3(C)C)C2`, the selectivity ratio in data set [1] worked out at 55. Besides, the CC50 at 48 h in data set [2] turned out to be 1260 µM. On to `CC1(C)[C@@H]2CC[C@@]1(C)/C(=N/CCCCCCCC/N=C1\C[C@H]3CC[C@]1(C)C3(C)C)C2`, for which the selectivity ratio in data set [1] stood at 16. In addition, in data set [2], the CC50 at 48 h came to 390 µM. As for `CC1(C)[C@@H]2CC[C@@]1(C)/C(=N/CCCCCCCCCCCC/N=C1\C[C@H]3CC[C@]1(C)C3(C)C)C2`, in data set [1], the selectivity ratio was 49. The CC50 at 48 h in data set [2] was determined as 2220 µM.

Regarding `CC1(C)[C@@H]2CC[C@@]1(C)/C(=N/c1ccc(Cc3ccc(/N=C4\C[C@H]5CC[C@]4(C)C5(C)C)cc3)cc1)C2`, in data set [1], the selectivity ratio was 3. The CC50 at 48 h in data set [2] was > 1070 µM. In the same order, the values of `CC1(C)[C@@H]2CC[C@@]1(C)/C(=N/c1ccc(Oc3ccc(/N=C4\C[C@H]5CC[C@]4(C)C5(C)C)cc3)cc1)C2` are 3 and > 1070 µM. Regarding `CC1(C)[C@@H]2CC[C@@]1(C)[C@H](NCCCCCCN[C@@H]1C[C@H]3CC[C@]1(C)C3(C)C)C2`, in data set [1], the selectivity ratio amounted to 7. Besides, in data set [2], the CC50 at 48 h turned out to be 5.4 µM. In the same order, the values of `CC1(C)[C@@H]2CC[C@@]1(C)[C@H](NCCCCCCCN[C@@H]1C[C@H]3CC[C@]1(C)C3(C)C)C2` are 3 and 10.4 µM. With `CC1(C)[C@@H]2CC[C@@]1(C)[C@H](NCCCCCCCCCCCCN[C@@H]1C[C@H]3CC[C@]1(C)C3(C)C)C2`, the selectivity ratio in data set [1] stood at 3. The CC50 at 48 h in data set [2] amounted to 14.4 µM. For the molecule `CC1(C)[C@@H]2CC[C@@]1(C)[C@H](Nc1ccc(Cc3ccc(N[C@@H]4C[C@H]5CC[C@]4(C)C5(C)C)cc3)cc1)C2`, the selectivity ratio in data set [1] was determined as 4. In addition, the CC50 at 48 h in data set [2] was > 638 µM. Regarding `CC1(C)[C@@H]2CC[C@@]1(C)[C@H](Nc1ccc(Oc3ccc(N[C@@H]4C[C@H]5CC[C@]4(C)C5(C)C)cc3)cc1)C2`, the selectivity ratio in data set [1] is 3. In data set [2], the CC50 at 48 h is > 636 µM. The corresponding values for `CN(CCCCCCN(C)[C@@H]1C[C@H]2CC[C@]1(C)C2(C)C)[C@@H]1C[C@H]2CC[C@]1(C)C2(C)C` are 1 and 110 µM. Take `CN(CCCCCCCN(C)[C@@H]1C[C@H]2CC[C@]1(C)C2(C)C)[C@@H]1C[C@H]2CC[C@]1(C)C2(C)C`: in data set [1], the selectivity ratio turned out to be 17. The CC50 at 48 h in data set [2] amounted to 698 µM. In the same order, the values of `CC1(C)[C@@H]2CC[C@@]1(C)/C(=N/c1ccc(Cc3ccc(N)cc3)cc1)C2` are 2 and 30.1 µM. The corresponding values for `CC1(C)[C@@H]2CC[C@@]1(C)/C(=N/c1ccc(Oc3ccc(N)cc3)cc1)C2` are 8 and 32.9 µM. For the molecule `CC(N)C1CC2CCC1C2` (stereo unspecified), the CC50 at 48 h in data set [2] is 1270 µM. Turning to `NC12CC3CC(CC(C3)C1)C2` [AMANTADINE], in data set [1], the selectivity ratio stood at 4. Same read-out and setting: then `CC1(C)C2CC[C@@]1(C)C(=O)C2` [CAMPHOR], with 2. Consider `CC(N)C12CC3CC(CC(C3)C1)C2` (stereo unspecified) [RIMANTADINE HYDROCHLORIDE], for which the selectivity ratio in data set [1] worked out at 5.

(Values after ChEMBL document CHEMBL3232826.)
